Data published in US5514662A, “Use of amphotericin B derivatives as protease inhibitors” (priority 1991, dated 1996).

Tests used:
LAV/BRU strain of HIV-1 = test: Reverse transcriptase activity in supernatants of HIV-1 infected Jurkat and CEM cells; type: cell-based
Protocol: The T cells (Jurkat and CEM) used are very permissive to HIV infection. They are cultured in RPMI 1640 medium supplemented with 10% foetal calf serum, 2 mM of glutamine and a mixture of penicillin and streptomycin. The peripheral blood mononuclear cells are obtained from blood from healthy donors, isolated on a Ficoll Hypaque gradient and stimulated with 10 μg/ml of phytohaemagglutinin A (PHA), for two days, in RPMI 1640 medium supplemented, prior to the infection by HIV, with amikacin and vancomycin (10 mg/ml), polybrene (1 mg/ml) and anti-interferon gamma serum (5 U/ml). After infection, the PBMCs are cultured (10^5 per well) in flat-bottomed 96-well plates in the same RPMI 1640 medium (200 μl per well).
Infectious preparations of the LAV/Bru strain of HIV-1 are obtained from chronically infected CEM cell (clone 13) culture supernatants filtered through a 0.45-μm filter.
For the infection, fresh Jurkat or CEM type cells are centrifuged and the pellet is incubated for 2 hours at 37° C. with the viral preparation (10000 cpm of reverse transcriptase activity/10^6 cells, which corresponds to a multiplicity of infection of 0.04 to 0.1). The cells are then washed and resuspended (0.5×10^6/ ml) in fresh culture medium. Reverse transcriptase activity is determined at specific times after the infection, using the acellular infected cell supernatant.
The reverse transcriptase activity is determined at the indicated times using the culture supernatant, according to the procedure described by REY et al., Biochem. Res. Comm. 121, 126-133 (1984).
The Jurkat and CEM type T cells are infected with the LAV/BRU strain of HIV-1.
Viral infection and replication are monitored by measuring the reverse transcriptase activity in the culture supernatants.
To measure the anti-HIV activity of DABF-AmB, infected cells are cultured in the presence of increasing doses (between 0.1 μM and 100 μM) of the product; […] kept constant during the infection by carrying out a one half dilution, every 3 days, of the growing cells in fresh medium containing the desired concentration.
The corresponding results are illustrated in FIGS. 3b and 3d: the reverse transcriptase activity measured on the 8th day of the viral infection is represented on the y axis and the DABF-AmB concentration on the x axis.

CD3 = test: Membrane antigen CD3 in HIV-1 infected cells; type: cell-based, human; conditions: treated or untreated infected cells
Protocol: Immunofluorescence analyses are carried out on the 8th day of the infection in order to verify whether the inhibition of HIV replication by DABF-AmB results in 10 a reduced membrane expression of viral antigens.

HRV14 = test: Direct virucidal effect on HRV14 (preincubation of virus); type: cell-based; conditions: HRV14 preincubated 5 hours at 37° C.
Protocol: When the suspension of HRV14 is preincubated at 37° C. in the presence of DABF-AmB for 5 hours, no inhibition of the cytopathogenic effect is observed compared with a control suspension incubated under the same conditions in the absence of DABF-AmB.

Compound: C[C@@H]1[C@H](O)[C@@H](C)/C=C/C=C/C=C/C=C/C=C/C=C/C=C/[C@H](O[C@@H]2O[C@H](C)[C@@H](O)[C@H](NCC(=O)[C@@H](O)[C@@H]3OC(c4ccccc4)OC[C@H]3O)[C@@H]2O)C[C@@H]2O[C@](O)(C[C@@H](O)C[C@@H](O)[C@H](O)CC[C@@H](O)C[C@@H](O)CC(=O)O[C@H]1C)C[C@H](O)[C@H]2C(=O)O (stereo partly drawn) [DABF-AmB, 1-deoxy-1-amino-4,6-O-benzylidene-D-fructosyl-AmB]
- inhibition of reverse transcriptase activity (LAV/BRU strain of HIV-1; 10 μM added during the 2-hour inoculation stage): does not bring about any significant inhibition
- inhibition of reverse transcriptase activity (LAV/BRU strain of HIV-1; 10 μM added prior to infection (24 hours pretreatment)): does not bring about any significant inhibition
- inhibition at 10 µM (LAV/BRU strain of HIV-1; Human immunodeficiency virus 1, 192 h, Jurkat and CEM cells, 10 μM, 8th day, N=4): 88%
- minimal effective concentration (LAV/BRU strain of HIV-1; Human immunodeficiency virus 1, 192 h, Jurkat and CEM cells, 8th day, read-out: concentration from which inhibition of reverse transcriptase activity is observed): ≥ 5 µM
- inhibition of reverse transcriptase activity (in words) (LAV/BRU strain of HIV-1; Jurkat and CEM cells, concentrations below 1 μM): No significant inhibition
- level of the membrane antigen CD3 (CD3): unchanged
- inhibition of the cytopathogenic effect after preincubation of virus (direct virucidal effect) (HRV14): no direct virucidal effect
